Source: patent US12396458B2, “Fused ring substituted aromatic compound and preparation method therefor, herbicidal composition, and use thereof” (Qingdao Kingagroot Chemical Compound Co., Ltd., priority 2020, dated 2025)

Assays:
Assay in all cases: Weeding effect in post-emergence stage (greenhouse pot test)
Format in all cases: in vivo
Alopecurus japonicus = conditions: 3 weeks after application, fresh weight control rate
Outline: (§1)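 Greenhouse pot plants sprayed at 2-3 leaf stage (2 weeks after sowing) with compound in acetone/Tween 80 plus 1.5 L/ha methyl oleate EC, at 500, 250, 125, 60, 15, 7.5 g a.i./ha. Fresh-weight growth control scored 3 weeks later on a 0-5 scale (level 5 >85%, level 0 <5%); three replicates averaged.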

Capsella bursa-pastoris = conditions: 3 weeks after application, fresh weight control rate
Outline: as §1

Eleusine indica = conditions: dose 7.5 g a.i./ha, fresh weight control rate
Outline: as §1

Digitaria sanguinalis = conditions: dose 7.5 g a.i./ha, fresh weight control rate
Outline: as §1

Conyza japonica = conditions: fresh weight control rate
Outline: as §1

Setaria viridis = conditions: dose 7.5 g a.i./ha, fresh weight control rate
Outline: as §1

Rorippa indica = conditions: dose 7.5 g a.i./ha, fresh weight control rate
Outline: as §1

Beckmannia syzigachne = conditions: 3 weeks after application, fresh weight control rate
Outline: as §1

[1] = post-emergence control test, dose 7.5 g a.i./ha
[2] = post-emergence, dose 15 g a.i./ha, 3 weeks after application
[3] = post-emergence, dose 125 g a.i./ha, 3 weeks after application

Row | SMILES | Activity level (growth control rate), Alopecurus japonicus (Alopecurus japonicus; dose 15 g a.i./ha) | Activity level (growth control rate), Capsella bursa-pastoris (Capsella bursa-pastoris; dose 15 g a.i./ha) | Activity level (growth control rate), Eleusine indica (Eleusine indica) | Activity level (growth control rate), Digitaria sanguinalis (Digitaria sanguinalis) | Activity level (growth control rate), Conyza japonica (Conyza japonica; [1]) | Activity level (growth control rate), Conyza japonica (Conyza japonica; [2]) | Activity level (growth control rate), Setaria viridis (Setaria viridis) | Activity level (growth control rate), Rorippa indica (Rorippa indica) | Activity level (growth control rate), Beckmannia syzigachne (Beckmannia syzigachne; dose 15 g a.i./ha) | Activity level (growth control rate), Alopecurus japonicus (Alopecurus japonicus; dose 125 g a.i./ha) | Activity level (growth control rate), Capsella bursa-pastoris (Capsella bursa-pastoris; dose 125 g a.i./ha) | Activity level (growth control rate), Conyza japonica (Conyza japonica; [3]) | Activity level (growth control rate), Beckmannia syzigachne (Beckmannia syzigachne; dose 125 g a.i./ha)
1 | CCOC(=O)C12CCCC1C(c1cc(-n3c(=O)n(C)c(=S)n(C)c3=O)c(F)cc1Cl)=NO2 (stereo not drawn) [Compound 3] | 5 (Level 5: growth control rate is above 85%) | 5 (Level 5: growth control rate is above 85%) | 4 (Level 4: growth control rate is greater than or equal to 60% and less than 85%) | 4 (Level 4: growth control rate is greater than or equal to 60% and less than 85%) | 3 (Level 3: growth control rate is greater than or equal to 40% and less than 60%) | 4 (Level 4: growth control rate is greater than or equal to 60% and less than 85%) | 4 (Level 4: growth control rate is greater than or equal to 60% and less than 85%) | 5 (Level 5: growth control rate is above 85%) | 5 (Level 5: growth control rate is above 85%) |  |  |  | 
2 | COC(=O)C12CCCC1C(c1cc(-n3c(=O)cc(C(F)(F)F)n(C)c3=O)c(F)cc1Cl)=NO2 (stereo not drawn) [Compound 209] | 5 (Level 5: growth control rate is above 85%) | 5 (Level 5: growth control rate is above 85%) | 5 (Level 5: growth control rate is above 85%) | 5 (Level 5: growth control rate is above 85%) | 4 (Level 4: growth control rate is greater than or equal to 60% and less than 85%) | 5 (Level 5: growth control rate is above 85%) | 5 (Level 5: growth control rate is above 85%) | 5 (Level 5: growth control rate is above 85%) | 5 (Level 5: growth control rate is above 85%) |  |  |  | 
3 | CCOC(=O)C12ON=C(c3cc(-n4c(=O)cc(C(F)(F)F)n(C)c4=O)c(F)cc3Cl)C1CCC2C (stereo not drawn) [Compound 476] | 5 (Level 5: growth control rate is above 85%) | 5 (Level 5: growth control rate is above 85%) |  |  |  | 4 (Level 4: growth control rate is greater than or equal to 60% and less than 85%) |  |  | 5 (Level 5: growth control rate is above 85%) |  |  |  | 
4 | CCOC(=O)C12ON=C(c3cc(-n4c(=O)cc(C(F)(F)F)n(C)c4=O)c(F)cc3Cl)C1CCC2CC (stereo not drawn) [Compound 477] | 5 (Level 5: growth control rate is above 85%) | 5 (Level 5: growth control rate is above 85%) |  |  |  | 4 (Level 4: growth control rate is greater than or equal to 60% and less than 85%) |  |  | 4 (Level 4: growth control rate is greater than or equal to 60% and less than 85%) |  |  |  | 
5 | COC(=O)C12CCCC1C(c1cc(-n3c(=S)cc(C(F)(F)F)n(C)c3=O)c(F)cc1Cl)=NO2 (stereo not drawn) [Compound 498] | 5 (Level 5: growth control rate is above 85%) | 5 (Level 5: growth control rate is above 85%) |  |  |  | 4 (Level 4: growth control rate is greater than or equal to 60% and less than 85%) |  |  | 5 (Level 5: growth control rate is above 85%) |  |  |  | 
6 | COC(=O)C12CCCC1C(c1nc(-n3c(=O)cc(C(F)(F)F)n(C)c3=O)c(F)cc1Cl)=NO2 (stereo not drawn) [Compound 521] | 5 (Level 5: growth control rate is above 85%) | 5 (Level 5: growth control rate is above 85%) |  |  |  | 4 (Level 4: growth control rate is greater than or equal to 60% and less than 85%) |  |  | 5 (Level 5: growth control rate is above 85%) |  |  |  | 
7 | CCOC(=O)CCC12CCCC1C(c1cc(-n3c(=O)n(C)c(=S)n(C)c3=O)c(F)cc1Cl)=NO2 (stereo not drawn) [Compound 530] |  |  |  |  |  |  |  |  |  | 5 (Level 5: growth control rate is above 85%) | 5 (Level 5: growth control rate is above 85%) | 4 (Level 4: growth control rate is greater than or equal to 60% and less than 85%) | 4 (Level 4: growth control rate is greater than or equal to 60% and less than 85%)
8 | CCOC(=O)CCC12CCCC1C(c1cc(-n3c(=O)cc(C(F)(F)F)n(C)c3=O)c(F)cc1Cl)=NO2 (stereo not drawn) [Compound 533] |  |  |  |  |  |  |  |  |  | 5 (Level 5: growth control rate is above 85%) | 5 (Level 5: growth control rate is above 85%) | 5 (Level 5: growth control rate is above 85%) | 5 (Level 5: growth control rate is above 85%)
9 | COC(=O)C12CCCC1C(c1cc(N3C(=O)C4=C(CCCC4)C3=O)c(F)cc1Cl)=NO2 (stereo not drawn) [Compound 542] | 5 (Level 5: growth control rate is above 85%) | 4 (Level 4: growth control rate is greater than or equal to 60% and less than 85%) |  |  |  | 4 (Level 4: growth control rate is greater than or equal to 60% and less than 85%) |  |  | 4 (Level 4: growth control rate is greater than or equal to 60% and less than 85%) |  |  |  | 
10 | COC(=O)C12CCCC1C(c1cc(-c3ncc(C(F)(F)F)cc3Cl)c(F)cc1Cl)=NO2 (stereo not drawn) [Compound 585] | 5 (Level 5: growth control rate is above 85%) | 5 (Level 5: growth control rate is above 85%) |  |  |  | 4 (Level 4: growth control rate is greater than or equal to 60% and less than 85%) |  |  | 5 (Level 5: growth control rate is above 85%) |  |  |  | 
11 | CCOC(=O)C1(C)CC(c2cc(-n3c(=O)n(C)c(=S)n(C)c3=O)c(F)cc2Cl)=NO1 (stereo not drawn) [Control compound A, reference compound] |  |  | 3 (Level 3: growth control rate is greater than or equal to 40% and less than 60%) | 2 (Level 2: growth control rate is greater than or equal to 20% and less than 40%) | 2 (Level 2: growth control rate is greater than or equal to 20% and less than 40%) |  | 2 (Level 2: growth control rate is greater than or equal to 20% and less than 40%) | 2 (Level 2: growth control rate is greater than or equal to 20% and less than 40%) |  |  |  |  | 
12 | CCOC(=O)C1(C)CC(c2cc(-n3c(=O)cc(C(F)(F)F)n(C)c3=O)c(F)cc2Cl)=NO1 (stereo not drawn) [Control compound B, reference compound] |  |  | 3 (Level 3: growth control rate is greater than or equal to 40% and less than 60%) | 2 (Level 2: growth control rate is greater than or equal to 20% and less than 40%) | 2 (Level 2: growth control rate is greater than or equal to 20% and less than 40%) |  | 3 (Level 3: growth control rate is greater than or equal to 40% and less than 60%) | 2 (Level 2: growth control rate is greater than or equal to 20% and less than 40%) |  |  |  |  | 
